Assay results as given in patent US12077503B2, “Substituted cyclic amides and their use as herbicides” (FMC CORPORATION, priority 2015, dated 2024).

What was measured:
Format in all cases: in vivo
[1] = test system: blackgrass (Alopecurus myosuroides); assay: Test A postemergence; settings: for Blackgrass plant response rating: 125 g ai/ha, visual injury rating on 0 to 100 scale (0 no effect, 100 complete control), approx. 10 d; for Plant response rating, Blackgrass: 500 g ai/ha
Procedure, shortened: (§1)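 Preemergence directed soil spray on seeded pots, or postemergence application to plants 2–10 cm, one- to two-leaf. Solvent mixture non-phytotoxic, with surfactant. Scored ~10 d later, visually, 0–100 vs untreated.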

[2] = test system: ryegrass, Italian (Italian ryegrass, Lolium multiflorum); assay: Test A postemergence; settings: for Ryegrass, Italian plant response rating: 125 g ai/ha, visual injury rating on 0 to 100 scale (0 no effect, 100 complete control), approx. 10 d; for Plant response rating, Ryegrass, Italian: 500 g ai/ha
Procedure, shortened: as §1

[3] = test system: barnyardgrass (Echinochloa crus-galli); assay: Test A postemergence; settings: for Barnyardgrass plant response rating: 125 g ai/ha, visual injury rating on 0 to 100 scale (0 no effect, 100 complete control), approx. 10 d; for Plant response rating, Barnyardgrass: 500 g ai/ha
Procedure, shortened: as §1

[4] = test system: wheat (Triticum aestivum); assay: Test A postemergence; settings: for Wheat plant response rating: 125 g ai/ha, visual injury rating on 0 to 100 scale (0 no effect, 100 complete control), approx. 10 d; for Plant response rating, Wheat: 500 g ai/ha
Procedure, shortened: as §1

[5] = test system: pigweed (Amaranthus retroflexus); assay: Test A postemergence; settings: for Pigweed plant response rating: 125 g ai/ha, visual injury rating on 0 to 100 scale (0 no effect, 100 complete control), approx. 10 d; for Plant response rating, Pigweed: 500 g ai/ha
Procedure, shortened: as §1

[6] = test system: giant foxtail (Setaria faberii); assay: Test A postemergence; settings: for Foxtail, Giant plant response rating: 125 g ai/ha, visual injury rating on 0 to 100 scale (0 no effect, 100 complete control), approx. 10 d; for Plant response rating, Foxtail, Giant: 500 g ai/ha
Procedure, shortened: as §1

Kochia (Kochia scoparia) [7] = assay: Test A postemergence; settings: for Kochia plant response rating: 125 g ai/ha, visual injury rating on 0 to 100 scale (0 no effect, 100 complete control), approx. 10 d; for Plant response rating, Kochia: 500 g ai/ha
Procedure, shortened: as §1

[8] = test system: Galium (catchweed bedstraw, Galium aparine); assay: Test A postemergence; settings: for Galium plant response rating: 125 g ai/ha, visual injury rating on 0 to 100 scale (0 no effect, 100 complete control), approx. 10 d; for Plant response rating, Galium: 500 g ai/ha
Procedure, shortened: as §1

corn (Zea mays) = assay: Test A postemergence; settings: for Corn plant response rating: 125 g ai/ha, visual injury rating on 0 to 100 scale (0 no effect, 100 complete control), approx. 10 d; for Plant response rating, Corn: 500 g ai/ha
Procedure, shortened: as §1

[9] = test system: ragweed (common ragweed, Ambrosia elatior); assay: Test A postemergence; settings: for Ragweed plant response rating: 125 g ai/ha, visual injury rating on 0 to 100 scale (0 no effect, 100 complete control), approx. 10 d; for Plant response rating, Ragweed: 500 g ai/ha
Procedure, shortened: as §1

[10] = test system: barnyardgrass (Echinochloa crus-galli); assay: Test B flooded paddy test; settings: Flood, 250 g ai/ha; 0 to 100 scale where 0 is no effect and 100 is complete control; 13 to 15 d
Procedure, shortened: (§2)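 Plants at 2-leaf stage flooded to 3 cm above soil, with compounds applied directly to paddy water and that depth maintained. Plants kept in greenhouse 13–15 d. Visual rating versus controls on a 0 (no effect) to 100 (complete control) scale.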

[11] = test system: ducksalad (Heteranthera limosa); assay: Test B flooded paddy test; settings: Flood, 250 g ai/ha; 0 to 100 scale where 0 is no effect and 100 is complete control; 13 to 15 d
Procedure, shortened: as §2

rice (Oryra sativa) = assay: Test B flooded paddy test; settings: Flood, 250 g ai/ha; 0 to 100 scale where 0 is no effect and 100 is complete control; 13 to 15 d
Procedure, shortened: as §2

[12] = test system: sedge, umbrella (small-flower umbrella sedge, Cyperus difformis); assay: Test B flooded paddy test; settings: Flood, 250 g ai/ha; 0 to 100 scale where 0 is no effect and 100 is complete control; 13 to 15 d
Procedure, shortened: as §2

[13] = test system: ryegrass, Italian (Italian ryegrass, Lolium multiflorum); assay: Test A preemergence; settings: for Plant response rating, Ryegrass, Italian: 125 g ai/ha; for Ryegrass, Italian plant response rating (0 to 100 scale, 0 is no effect, 100 is complete control): 500 g ai/ha, visual injury approx. 10 d
Procedure, shortened: as §1

[14] = test system: barnyardgrass (Echinochloa crus-galli); assay: Test A preemergence; settings: for Plant response rating, Barnyardgrass: 125 g ai/ha; for Barnyardgrass plant response rating (0 to 100 scale, 0 is no effect, 100 is complete control): 500 g ai/ha, visual injury approx. 10 d
Procedure, shortened: as §1

[15] = test system: pigweed (Amaranthus retroflexus); assay: Test A preemergence; settings: for Plant response rating, Pigweed: 125 g ai/ha; for Pigweed plant response rating (0 to 100 scale, 0 is no effect, 100 is complete control): 500 g ai/ha, visual injury approx. 10 d
[16] = test system: giant foxtail (Setaria faberii); assay: Test A preemergence; settings: for Plant response rating, Foxtail, Giant: 125 g ai/ha; for Foxtail, Giant plant response rating (0 to 100 scale, 0 is no effect, 100 is complete control): 500 g ai/ha, visual injury approx. 10 d
Procedure, shortened: as §1

Kochia (Kochia scoparia) [17] = assay: Test A preemergence; settings: for Plant response rating, Kochia: 125 g ai/ha; for Kochia plant response rating (0 to 100 scale, 0 is no effect, 100 is complete control): 500 g ai/ha, visual injury approx. 10 d
Procedure, shortened: as §1

[18] = test system: ragweed (common ragweed, Ambrosia elatior); assay: Test A preemergence; settings: for Plant response rating, Ragweed: 125 g ai/ha; for Ragweed plant response rating (0 to 100 scale, 0 is no effect, 100 is complete control): 500 g ai/ha, visual injury approx. 10 d
Procedure, shortened: as §1

[19] = Postemergence, 0 to 100 scale where 0 is no effect and 100 is complete control
[20] = Preemergence, visual injury after approximately 10 d, 0 to 100 scale where 0 is no effect and 100 is complete control
[21] = postemergence, 0 to 100 scale, 0 no effect, 100 complete control
[22] = preemergence, 0 to 100 scale (0 no effect, 100 complete control)

| Compound | Blackgrass plant response rating ([1]; postemergence) | Ryegrass, Italian plant response rating ([2]; postemergence) | Barnyardgrass plant response rating ([3]; postemergence) | Wheat plant response rating ([4]; postemergence) | Pigweed plant response rating ([5]; postemergence) | Foxtail, Giant plant response rating ([6]; postemergence) | Kochia plant response rating (Kochia (Kochia scoparia) [7]; postemergence) | Galium plant response rating ([8]; postemergence) | Corn plant response rating (corn (Zea mays); postemergence) | Ragweed plant response rating ([9]; postemergence) | Plant response rating, Barnyardgrass [10] | Plant response rating, Ducksalad [11] | Plant response rating, Rice (rice (Oryra sativa)) | Plant response rating, Sedge, Umbrella [12] | Ryegrass, Italian plant response rating (0 to 100 scale, 0 is no effect, 100 is complete control) ([13]; Preemergence) | Barnyardgrass plant response rating (0 to 100 scale, 0 is no effect, 100 is complete control) ([14]; Preemergence) | Pigweed plant response rating (0 to 100 scale, 0 is no effect, 100 is complete control) ([15]; Preemergence) | Foxtail, Giant plant response rating (0 to 100 scale, 0 is no effect, 100 is complete control) ([16]; Preemergence) | Kochia plant response rating (0 to 100 scale, 0 is no effect, 100 is complete control) (Kochia (Kochia scoparia) [17]; Preemergence) | Ragweed plant response rating (0 to 100 scale, 0 is no effect, 100 is complete control) ([18]; Preemergence) | also measured |
| --- | --- | --- | --- | --- | --- | --- | --- | --- | --- | --- | --- | --- | --- | --- | --- | --- | --- | --- | --- | --- | --- |
| CN1CC(c2cccc(OC(F)F)c2)C(C(=O)Nc2ccccc2S(C)(=O)=O)C1=O (stereo not drawn) [Compound 523] | 50 | 30 | 90 | 0 | 30 | 80 | 20 | 50 | 20 | 50 | 50 | 50 | 0 | 0 | 90 | 90 | 90 | 90 | 80 | 80 | Plant response rating, Blackgrass [1, 19]: 70; Plant response rating, Ryegrass, Italian [2, 19]: 70; Plant response rating, Barnyardgrass [3, 19]: 90; Plant response rating, Wheat [4, 19]: 70; Plant response rating, Pigweed [5, 19]: 60; Plant response rating, Foxtail, Giant [6, 19]: 90; Plant response rating, Kochia (Kochia (Kochia scoparia) [7]; [19]): 50; Plant response rating, Galium [8, 19]: 60; Plant response rating, Corn (corn (Zea mays); [19]): 80; Plant response rating, Ragweed [9, 19]: 50; Plant response rating, Ryegrass, Italian [13, 20]: 40; Plant response rating, Barnyardgrass [14, 20]: 90; Plant response rating, Pigweed [15, 20]: 80; Plant response rating, Foxtail, Giant [16, 20]: 90; Plant response rating, Kochia (Kochia (Kochia scoparia) [17]; [20]): 0; Plant response rating, Ragweed [18, 20]: 60 |
| CN1CC(c2ccc(C(F)(F)F)c(F)c2)C(C(=O)Nc2ccccc2F)C1=O (stereo not drawn) [Compound 399] | 40 | 40 | 90 | 40 | 30 | 90 | 50 | 50 | 50 | 0 | 65 | 100 | 0 | 0 | 60 | 90 | 90 | 90 | 80 | 50 | Plant response rating, Blackgrass [1, 21]: 60; Plant response rating, Ryegrass, Italian [2, 21]: 40; Plant response rating, Barnyardgrass [3, 21]: 90; Plant response rating, Wheat [4, 21]: 60; Plant response rating, Pigweed [5, 21]: 40; Plant response rating, Foxtail, Giant [6, 21]: 90; Plant response rating, Kochia (Kochia (Kochia scoparia) [7]; [21]): 60; Plant response rating, Galium [8, 21]: 50; Plant response rating, Corn (corn (Zea mays); [21]): 70; Plant response rating, Ragweed [9, 21]: 0; Plant response rating, Ryegrass, Italian [13, 22]: 20; Plant response rating, Barnyardgrass [14, 22]: 90; Plant response rating, Pigweed [15, 22]: 70; Plant response rating, Foxtail, Giant [16, 22]: 90; Plant response rating, Kochia (Kochia (Kochia scoparia) [17]; [22]): 80; Plant response rating, Ragweed [18, 22]: 50 |
